Results taken from PMC5360941, “Simultaneous Determination and Pharmacokinetic Study of Quercetin, Luteolin, and Apigenin in Rat Plasma after Oral Administration of Matricaria chamomilla L. Extract by HPLC-UV” (Evidence-based Complementary and Alternative Medicine : eCAM, 2017).

What was measured:
[1] = Pharmacokinetic study in rats after oral administration of M. chamomilla extract (HPLC-UV of plasma); assay type: in vivo, Male Sprague-Dawley rats; details: oral M. chamomilla extract (quercetin 8.51 mg/kg, luteolin 56.49 mg/kg, apigenin 13.82 mg/kg), mean ± SD; for AUC(0-inf) / AUC(0-t) / Cmax / Tmax / half-life: male, Sprague-Dawley, rat; for AUC(0-inf) / T1/2, elimination half-life: n = 6; for AUC(0-t): n = 6, read-out: AUC0–12; for Cmax: n = 6, read-out: Cmax, maximum plasma concentration; for Tmax: noncompartmental, n = 6, read-out: Tmax, time to reach the maximum plasma concentration; for half-life: po, n = 6, read-out: T1/2, elimination half-life (converted)
Protocol: All analyses were performed on a Shimadzu HPLC system, equipped with LC-20AT pump, a Shimadzu SCL-10A system controller, and a SPD-20A DAD-UV detector. The HPLC analysis was performed on an Agilent Eclipse XDB-C18 column (250 mm × 4.6 mm, 5 μm) with a mobile phase consisting of methanol and 0.2% phosphoric acid (50 : 50, v/v) with a constant rate of 1.0 ml/min. The injection volume was 10 μl and the column temperature was set at 25°C. The wavelength was set at 350 nm for quantitative analysis; the proportion of components in the mobile phase was optimized to obtain a well separation of quercetin, luteolin, apigenin, and kaempferol (IS).
An aliquot of 100 μL rat plasma was transferred to a 1.5 mL plastic tube to which was added 10 μL IS (22.52 μg/ml) for processing. After being vortex-mixed for 30 seconds, the plasma sample was then extracted with 800 μl of ethyl acetate and centrifuged at 18000g for 10 min, where ethyl acetate acted as a deproteinization-extraction agent. The procedure of extraction was performed two times. The organic layer was dried at 40°C under nitrogen stream. The residue was reconstituted in 100 μL of methanol solution, vortexed for 1 min, and centrifuged at 18000g for 10 min. The supernatant transferred to a glass insert, and 10 μL of the sample was injected into the HPLC column for analysis. The method of sample preparation was also applied for determination of accuracy, precision, and recovery.
Male Sprague-Dawley rats (body weight 160 ± 20 g) were purchased from Beijing Vital River Laboratory Animal Technology (Beijing, China). Rats were housed in a temperature- and humidity-controlled environment (25°C, 65% RH) and maintained on a 12-hour light/dark cycle for 3 days with free access to food and water before starting the experiment. The animal experiments were performed in accordance with the principles of the International Guide for the Care and Use of Laboratory Animals and were approved by the Committee on Animal Care and Usage of the Beijing University of Chinese Medicine (number SYXK 2011-0024).
The extracts of M. chamomilla (quercetin was 8.51 mg/kg, luteolin was 56.49 mg/kg, and apigenin was 13.82 mg/kg) freshly prepared in 0.5% CMC-Na solution were orally administered to six rats. Blood samples (0.5 mL) were collected from the ocular fundus veins of rats before administration and after 10, 20, 30, and 45 min and 1, 1.5, 2, 4, 6, 8, and 12 h after oral administration of M. chamomilla extract. The plasma was immediately centrifuged at 3200g for 10 min to separate out plasma and then stored frozen at −20°C until analysis.
The pharmacokinetic parameters of quercetin, luteolin, and apigenin were calculated by Kinetica 4.4 software (Thermo Scientific, USA). Noncompartmental analysis was used to determine standard pharmacokinetic parameters of analytes. All the results were expressed as means ± standard deviation (SD) of six replicates.

[2] = Stability of the analytes in rat plasma (QC samples under different storage conditions); assay type: in vitro ADME; details: for Stability in plasma (in words): plasma stored at 20°C for 24 h, −20°C for 30 days, and after three freeze-thaw cycles, low, medium, high concentrations, stable = 85–115% of initial; for Freeze-thaw stability, found conc. / Short-term stability, found conc. / Long-term stability, found conc.: rat plasma, n = 6; for Freeze-thaw stability, found conc.: 3 freeze-thaw cycles; for Short-term stability, found conc.: 24 h at room temperature; for Long-term stability, found conc.: 30 days at −20°C
Protocol: QC samples were prepared in the same way as the calibration samples, representing three different level concentrations (low, medium, and high) of quercetin in plasma at 0.57, 2.84, and 9.09 μg/ml, luteolin at 0.56, 2.80, and 8.96 μg/ml, and apigenin at 0.53, 2.65, and 8.48 μg/ml, respectively. The stability of the analytes in plasma was investigated by determining QC plasma samples of the three concentration levels under different storage conditions: 24 h at room temperature, three freeze (−20°C) and thaw (room temperature) cycles, stored at −20°C for 30 days. They were considered stable when 85–115% of the initial concentrations were got. All stability testing QC samples were determined by using the calibration curve of freshly prepared standard samples.

[3] = high QC (spiked 9.09 quercetin, 8.96 luteolin, 8.48 apigenin μg/ml)
[4] = low QC (spiked 0.57 quercetin, 0.56 luteolin, 0.53 apigenin μg/ml)
[5] = medium QC (spiked 2.84 quercetin, 2.80 luteolin, 2.65 apigenin μg/ml)

AUC(0-inf) [1] | AUC(0-t) [1] | Cmax [1] | Tmax [1] | half-life [1] | T1/2, elimination half-life [1] | Stability in plasma (in words) [2] | Freeze-thaw stability, found conc. [2, 3] | Freeze-thaw stability, found conc. [2, 4] | Freeze-thaw stability, found conc. [2, 5] | Short-term stability, found conc. [2, 3] | Short-term stability, found conc. [2, 4] | Short-term stability, found conc. [2, 5] | Long-term stability, found conc. [2, 3] | Long-term stability, found conc. [2, 4] | Long-term stability, found conc. [2, 5] | Structure (SMILES)
5030 ± 1720 ng·h/mL | 2910 ± 740 ng·h/mL | 420 ± 110 ng/mL | ~0.51 h | ~8.82 h | 8.82 ± 4.15 h | stable | 7.87 ± 0.50 µg/mL | 0.48 ± 0.02 µg/mL | 2.60 ± 0.14 µg/mL | 8.31 ± 0.72 µg/mL | 0.50 ± 0.04 µg/mL | 2.64 ± 0.16 µg/mL | 8.27 ± 0.62 µg/mL | 0.46 ± 0.04 µg/mL | 2.61 ± 0.13 µg/mL | O=c1cc(-c2ccc(O)cc2)oc2cc(O)cc(O)c12 [Apigenin, apigenin]
19900 ± 5060 ng·h/mL | 16000 ± 2380 ng·h/mL | 3040 ± 600 ng/mL | ~0.42 h | ~4.43 h | 4.43 ± 1.84 h | stable | 8.56 ± 0.54 µg/mL | 0.62 ± 0.02 µg/mL | 2.91 ± 0.15 µg/mL | 8.96 ± 0.76 µg/mL | 0.62 ± 0.01 µg/mL | 2.94 ± 0.14 µg/mL | 8.99 ± 0.65 µg/mL | 0.61 ± 0.03 µg/mL | 2.92 ± 0.15 µg/mL | O=c1cc(-c2ccc(O)c(O)c2)oc2cc(O)cc(O)c12 [Luteolin, luteolin]
3880 ± 1000 ng·h/mL | 1790 ± 290 ng·h/mL | 290 ± 60 ng/mL | ~0.79 h | ~13.6 h |  | stable | 9.24 ± 0.55 µg/mL | 0.63 ± 0.01 µg/mL | 3.09 ± 0.09 µg/mL | 9.15 ± 0.69 µg/mL | 0.63 ± 0.01 µg/mL | 3.09 ± 0.18 µg/mL | 9.59 ± 0.53 µg/mL | 0.62 ± 0.03 µg/mL | 3.10 ± 0.16 µg/mL | O=c1c(O)c(-c2ccc(O)c(O)c2)oc2cc(O)cc(O)c12 [Quercetin, quercetin]
